Consider one compound from patent US20050272784A1 (priority 2004, published 2005).

Assay [1] relates to type III protein secretion system of P. aeruginosa PA103 (ExoU secretion). In words: Tertiary assay: Type III-dependent secretion of ExoU by P. aeruginosa PA103. The note with it: Pseudomonas aeruginosa, ExoU Conc 100 μM, read-out: ExoU % Inh. Format: cell-based. An excerpt:
Tertiary assay: inhibition of Type III protein secretion of effectors from a Pseudomonas aeruginosa system. Type III protein secretion is used by P. aeruginosa to secrete several essential virulence determinants. One effector of the type III protein secretion system of P. aeruginosa PA103 is the virulence determinants ExoU.
The amount of Type III-dependent secretion of ExoU by P. aeruginosa PA103 can be determined in a cell-based assay by quantification of the 73.9 kDa ExoU protein scereted into the extracellular medium. Such quantitation can be achieved by growing strain PA103 in a deferrated medium in the presence of nitrilotriacetic acid (an inducer of Type III protein secretion in P. aeruginosa) and either in the presence or absence of putative inhibitors. After a prolonged growth period, the cells are sedimented and the supernatants concentrated by ammonium sulfate precipitation. The proteins in the resuspended pellets are separated by electrophoresis on SDS-polyacrylamide gels. After staining gels with Colloidal Blue™, the 73.9 kDa ExoU band is quantitated by scanning through an imager. The effects of inhibitors on the intensity of the ExoU band may be measured relative to that of untreated controls.

The test system of assay [2] is SPI1 type III protein secretion system (SopE'-'Bla secretion). The assay can be described thus: Primary assay: Type III protein secretion of the chimeric SopE'-'Bla polypeptide by Salmonella enterica. The assay is classed as cell-based. To be noted: read-out: SopE IC50. An excerpt:
Primary assay: Type III protein secretion of the chimeric SopE′-'Bla polypeptide by Salmonella enterica. This procedure is a cell-based assay that measures the type III-dependent secretion by Salmonella enterica of a plasmid-encoded chimeric polypeptide whose synthesis can be regulated, and which is endowed with an enzymatic activity that can be monitored […] by hydrolysis of a substrate that is unable to penetrate into the bacterial cytoplasm within the time constraints of the reaction. Thus, the colorimetric reaction is not influenced by SopE′-'Bla polypeptide in the bacterial cytoplasm. Instead, it effectively measures the amount of polypeptide that has been secreted from the S. enterica cytoplasm to the extracellular medium via type III system protein secretion.
The SopE′-' Bla recombinant polypeptide consists of two functionally distinct domains spliced together. The N-terminus domain is encoded by a polynucleotide region specifying the signal for type III secretion of the SopE polypeptide of S. enterica, an effector of the SPI1 type III protein secretion system. The C-terminus domain of SopE′-'Bla consists of a 263 amino acid peptide sequence that corresponds to the TEM-1 β-lactamase expressed by plasmid pBR322 but without its N-terminal signal sequence. The TEM-1 β-lactamase part of the SopE′-'Bla chimeric polypeptide is used as a reporter enzyme. It is capable of hydrolyzing nitrocefin resulting in a product whose accumulation can be monitored by colorimetric detection. The secretion of the SopE′-'Bla chimeric polypeptide from the cytoplasm to the extracellular medium is dependent on type III protein secretion.
For this procedure, cells grown under conditions known to favor a functional SPI1 secretion system are induced for expression of the SopE′-'Bla protein and grown either in the presence or in the absence of putative inhibitors for determined time. Nitrocefin is then added to the various cultures and its hydrolysis are used for quantitation. An inhibitor of Type III protein secretion is generally a compound that reduces the signal of the enzymatic reaction by decreasing the amount of SopE′-'Bla secreted into the extracellular medium.

On to `O=C(N[C@@H](C[S+]([O-])Cc1ccccc1)C(=O)O)c1nc(-c2ccc(C(F)(F)F)cc2)[nH]c1-c1ccc(-c2ccccc2)cc1` (stereo partly drawn) [Compound 12, (R)-2-{[5-Biphenyl-4-yl-2-(4-trifluoromethylphenyl)-1H-imidazole-4-carbonyl]amino}-3-phenylmethanesulfinylpropionic acid], for which the inhibition at 100 µM in assay [1] was determined as 84.3%. Besides, in assay [2], the IC50 (usually the concentration that gives 50% inhibition) was 14 µM.
